Our source for the IC50 values is ChEMBL document CHEMBL5604062, “ASAP - ZIKV NS2B-NS3 protease fluorescence dose response” (2024).

Where “and” joins values, the source holds several entries; their conditions need not be identical. Identical values can stand only once. Bounds are passed on as bounds.

What is called IC50 is the point on the concentration scale where inhibition reaches its midpoint. Low readings indicate greater potency, high ones weaker potency.

Nonstructural protein 3, sequence (A0A024AXB9 whole entry): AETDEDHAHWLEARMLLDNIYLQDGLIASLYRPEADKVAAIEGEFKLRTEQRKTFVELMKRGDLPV

The assay has as its target Nonstructural protein 3 (Zika virus, UniProt A0A024AXB9). In words: Functional biochemical assay to identify treatments for viral infectious disease that targets Zika NS2B-NS3 protease. Utilizing a direct enzyme activity measurement method, reading the fluorescence intensity is used to characterize the relative potency of inhibitors as IC50. On the set-up: species or system PRVABC59.
For the compound `CN(c1ccc2c(c1)CNC2)[C@H](C(=O)NCC(F)F)c1cc(Cl)cc(C2CC2)c1`, the IC50 is 32 nM and 17 nM.
Compound `Cc1c(C(=O)Nc2cc(C(=O)N3CCn4nccc43)ccn2)cc(C2CC2)n1C` came in with an IC50 of over 25000 nM.
Consider `COC1CCN(C(=O)c2ccnc(NC(=O)c3cc(C4CC4)n(C)c3C)c2)CC1`, for which the IC50 was over 25000 nM.
The compound `O=C(NCC(F)F)[C@H](Nc1ccc2c(c1)CNC2)c1cc(Cl)ccc1Sc1ccccc1` gave an IC50 of 494 nM.
Under `O=C1Cc2c(cccc2C(=O)Nc2cc3c(cn2)OCCO3)N1` stands over 25000 nM; under `Cc1c(C(=O)Nc2cc(C(=O)N[C@H]3CNC(=O)C3)ccn2)cc(C2CC2)n1C`, over 25000 nM; under `Cc1c(C(=O)Nc2cc(C(=O)N3CCC[C@H]3C(N)=O)ccn2)cc(C2CC2)n1C`, over 25000 nM.
Under `COC1CN(C(=O)c2ccnc(NC(=O)c3cc(C4CC4)n(C)c3C)c2)C1` stands over 25000 nM; under `Cc1cc(C(=O)Nc2ccc3c(c2)CNC3)cc2nc[nH]c12`, 121 nM.
For the compound `O=C(Nc1ccc2c(c1)CNC2)c1ccc2[nH]cc(C3CCNCC3)c2c1`, the IC50 was 797 nM and 1060 nM.
Under `COCc1cc(Cl)cc([C@H](Nc2ccc3c(c2)CNC3)C(=O)NCC(F)F)c1` stands 27 nM and 14 nM; under `O=C(NCC(F)F)[C@H](Nc1ccc2c(c1)CNC2)c1cc(Cl)ccc1Cl`, 232 nM; under `N#Cc1ccc(-c2nc3c(C(=O)Nc4ccc5c(c4)CNC5)cc(F)cc3[nH]2)cc1`, 14 nM and 13 nM and 10 nM.
Under `O=C(Nc1cc(-c2cccnc2)ccn1)c1cc(C2CC2)[nH]c(=O)c1` stands over 25000 nM; under `C=CC[C@H]1c2ccc(NC(=O)c3cc(Br)cc4[nH]ccc34)cc2CN1C(=O)OC(C)(C)C`, over 25000 nM; under `COc1cccc(-c2nc3c(C(=O)Nc4ccc5c(c4)CNC5)cc(F)cc3[nH]2)c1`, 46 nM and 42 nM and 25 nM.
The result for `CCNC(=O)c1ccnc(NC(=O)c2cc(C3CC3)n(C)c2C)c1` reads over 25000 nM; that for `O=C1Cc2c(cccc2C(=O)N[C@H]2CCC[C@@H](C(=O)NC3CC3)C2)N1`, over 25000 nM.
`O=C1Cc2c(cccc2C(=O)N[C@H]2COc3cc(Br)cnc32)N1` had an IC50 of over 25000 nM.
Under `O=C(Nc1ccc2c(c1)CNC2)c1cc(F)cc2[nH]c(CC[C@H]3CCCOC3)nc12` stands 135 nM; under `O=C(NCC(F)F)[C@H](Nc1ccc2c(c1)CNC2)c1cccc(Cl)c1`, 82 nM and 66 nM; under `O=C1Cc2c(cccc2C(=O)Nc2ccn(C[C@H]3CCOC3)n2)N1`, over 25000 nM.
Under `Cc1cc(N2CCC(NC(=O)c3cccc4c3CC(=O)N4)CC2)[nH]n1` stands over 25000 nM; under `CCO[C@@H]1CC[C@H]1NC(=O)c1cccc2c1CC(=O)N2`, over 25000 nM.
The result for `N[C@H]1COC[C@H]1n1cc(C(=O)Nc2cc(-c3cccnc3)ccn2)cn1` reads over 25000 nM.
In turn, `O=C1Cc2c(cccc2C(=O)NC[C@H]2C[C@@H](n3cccn3)C2)N1` had an IC50 of over 25000 nM.
The result for `O=C1Cc2c(cccc2C(=O)N[C@H]2CCc3ncsc3C2)N1` reads over 25000 nM.
Under `Cc1c(C(=O)Nc2cc(C(=O)N[C@H]3CCOC3)ccn2)cc(C2CC2)n1C` stands over 25000 nM; under `Cc1c(C(=O)Nc2cc(C(=O)N3C[C@@H]4[C@H](O)[C@@H]4C3)ccn2)cc(C2CC2)n1C`, over 25000 nM.
Under `Cc1c(C(=O)Nc2cc(C(=O)N3CC[C@H](C(N)=O)C3)ccn2)cc(C2CC2)n1C` stands over 25000 nM.
In turn, `CCOCC1(c2nc3c(C(=O)Nc4ccc5c(c4)CNC5)cc(F)cc3[nH]2)CC1` returned a 50% inhibitory concentration (IC50) of 137 nM.
Under `O=C1Cc2c(cccc2C(=O)NC2CCC3(CC2)COC3)N1` stands over 25000 nM; under `NCc1cccc(-c2csc3cc(C(=O)Nc4ccc5c(c4)CNC5)ccc23)c1`, 1710 nM and 1410 nM; under `O=C(Nc1ccc2c(c1)CNC2)c1cc(F)cc2[nH]c(-c3cccc(F)c3)nc12`, 36 nM (2×) and 22 nM.
Under `O=C1Cc2c(cccc2C(=O)N[C@H]2C[C@@H](c3ncc[nH]3)C2)N1` stands over 25000 nM.
Compound `Cc1c(C(=O)Nc2cc(C(=O)N[C@H]3CCNC3=O)ccn2)cc(C2CC2)n1C` returned an IC50 of over 25000 nM.
The result for `Cc1c(C(=O)Nc2cc(C(=O)N3CC[C@H]3CO)ccn2)cc(C2CC2)n1C` reads over 25000 nM; that for `CC(C)n1cnc2cc(C(=O)Nc3ccc4c(c3)CNC4)ccc21`, over 25000 nM.
As to `Cc1cccc(-c2nc3c(C(=O)Nc4ccc5c(c4)CNC5)cc(F)cc3[nH]2)c1`, the 50% inhibitory concentration (IC50) was 112 nM and 159 nM.
Under `Cc1ccccc1-c1nc2c(C(=O)Nc3ccc4c(c3)CNC4)cc(F)cc2[nH]1` stands 31 nM (2×) and 18 nM.
With `O=C1Cc2c(cccc2C(=O)NC2CCN(c3nccs3)CC2)N1`, the IC50 was over 25000 nM.
`Cc1c(C(=O)Nc2cc(C(=O)Nc3cccnc3)ccn2)cc(C2CC2)n1C` showed an IC50 of over 25000 nM.
The result for `O=C(NCC(F)F)[C@H](Nc1ccc2c(c1)CNC2)c1cccc2c1CCC2` reads 3620 nM; that for `O=C(NCC(F)F)[C@H](Nc1ccc2c(c1)CNC2)c1cc(Cl)cc(Cl)c1Cl`, 69 nM and 65 nM.
Under `CCc1cc2c(cc1NC(=O)c1cc(F)cc3[nH]ncc13)CNC2` stands 140 nM; under `CC1(NC(=O)c2cccc3c2CC(=O)N3)CCOCC1`, over 25000 nM.
The result for `O=C(Nc1ccc2c(c1)CNC2)c1ccc2c(C3=CCNCC3)csc2c1` reads 500 nM and 540 nM; that for `COc1ccc(Cl)cc1[C@H](Nc1ccc2c(c1)CNC2)C(=O)NCC(F)F`, 61 nM and 53 nM.
Consider `O=C1Cc2c(cccc2C(=O)N[C@H]2CCC23CCOCC3)N1`, for which the concentration for half-maximal inhibition (IC50) is over 25000 nM.
Under `Cc1c(C(=O)Nc2cc(C(=O)N3CC[C@H](O)C3)ccn2)cc(C2CC2)n1C` stands over 25000 nM.
`O=C1Cc2c(cccc2C(=O)Nc2ccc(-c3cccnc3)cn2)N1`: the IC50 was over 25000 nM.
The result for `CS(=O)(=O)c1cc2c(cc1NC(=O)c1cc(F)cc3[nH]ncc13)CNC2` reads 200 nM; that for `Cc1c(C(=O)Nc2cc(C(=O)N3CC[C@H](CO)C3)ccn2)cc(C2CC2)n1C`, over 25000 nM.
`COc1ccccc1Cn1cnc2cc(C(=O)Nc3ccc4c(c3)CNC4)ccc21` yielded an IC50 of over 25000 nM.
Under `Cc1c(C(=O)Nc2cc(C(=O)N3CC(CO)C3)ccn2)cc(C2CC2)n1C` stands over 25000 nM.
`C[C@H](NC(=O)c1cccc2c1CC(=O)N2)c1cccc(S(C)(=O)=O)c1`: the IC50 was over 25000 nM.
Consider `O=C(Nc1ccc2c(c1)CN[C@H]2[C@H](O)CO)c1cc(F)cc2[nH]ncc12`, for which the IC50 came to 241 nM.
The result for `O=C(NCC(F)F)[C@H](Nc1ccc2c(c1)CNC2)c1cc(Cl)cc2c1CCC2` reads 51 nM and 34 nM.
Under `NCCc1cc(C(=O)Nc2cc(-c3cccnc3)ccn2)no1` stands over 25000 nM.
Under `O=C(NCC(F)F)[C@H](Nc1ccc2c(c1)CNC2)c1cc(Cl)cc2ccoc12` stands 28 nM and 18 nM; under `Cc1c(C(=O)Nc2cc(C(=O)N(C)[C@H]3C[C@H](O)C3)ccn2)cc(C2CC2)n1C`, over 25000 nM.
Take `Cc1c(C(=O)Nc2cc(C(=O)N3Cc4cn[nH]c4C3)ccn2)cc(C2CC2)n1C`: the IC50 is over 25000 nM.
The result for `O=C(Nc1ccc2c(c1)CNC2)c1cccc2c1[C@]1(CCN(C(=O)OCc3ccccc3)C1)C(=O)N2` reads 243 nM; that for `CNC(=O)C[C@H]1CC[C@@H](NC(=O)c2cccc3c2CC(=O)N3)CC1`, over 25000 nM.
The result for `O=C1Cc2c(cccc2C(=O)N[C@H]2CCSC3(CCOCC3)C2)N1` reads over 25000 nM; that for `O=C1Cc2c(cccc2C(=O)NC2(c3ccc(O)nc3)CC2)N1`, over 25000 nM.
Under `CO[C@H]1CCCN(C(=O)c2ccnc(NC(=O)c3cc(C4CC4)n(C)c3C)c2)C1` stands over 25000 nM; under `Cn1ccc(-c2cc(F)cc(C(=O)Nc3ccc4c(c3)CNC4)c2)cc1=O`, 104 nM.
`NC(=O)N1CCc2ccc(NC(=O)c3cccc4c3CC(=O)N4)cc21` registered an IC50 of over 25000 nM.
The compound `Cc1[nH]nc2c1CC[C@H](NC(=O)c1cccc3c1CC(=O)N3)C2` yielded an IC50 of over 25000 nM.
Under `COc1cc(C#N)cc([C@H](Nc2ccc3c(c2)CNC3)C(=O)NCC(F)F)c1` stands 42 nM and 31 nM; under `N#Cc1csc2cc(C(=O)Nc3ccc4c(c3)CNC4)ccc12`, 466 nM; under `C=CCNC(=O)C1(NC(=O)c2cccc3c2CC(=O)N3)CCCCC1`, over 25000 nM.
The result for `O=C1Cc2c(cccc2C(=O)N[C@H]2C[C@H](Cn3ccnc3)C2)N1` reads over 25000 nM; that for `Cc1c(C(=O)Nc2cc(C(=O)N3CCC(O)CC3)ccn2)cc(C2CC2)n1C`, over 25000 nM.
Under `Cc1c(C(=O)Nc2cc(C(=O)N3CCNC(=O)C3)ccn2)cc(C2CC2)n1C` stands over 25000 nM.
On to `Cn1nccc1-c1cc(NC(=O)c2cc(F)cc3[nH]ncc23)cc2c1CNC2`, for which the concentration for half-maximal inhibition (IC50) is 42 nM and 29 nM.
On to `O=C1Cc2c(cccc2C(=O)N[C@H]2CC[C@@H](n3ccnn3)CC2)N1`, for which the IC50 was over 25000 nM.
The result for `Cc1c(C(=O)Nc2cc(C(N)=O)ccn2)cc(C2CC2)n1C` reads over 25000 nM.
Compound `C=CC[C@H]1NCc2cc(NCc3cc(Cl)cc4[nH]ncc34)ccc21` yielded a half-inhibitory concentration (IC50) of over 25000 nM.
In turn, `O=C1Cc2c(cccc2C(=O)NC2CC3(CCOCC3)C2)N1` registered an IC50 of over 25000 nM.
Under `O=C(Nc1ccc2c(c1)CNC2)c1cc(F)cc2[nH]c(CCc3cccnc3)nc12` stands 131 nM; under `O=C1Cc2c(cccc2C(=O)N[C@H]2CCc3cnccc32)N1`, over 25000 nM.
The result for `Cc1c(C(=O)Nc2cc(C(=O)N3CCOC[C@H](O)C3)ccn2)cc(C2CC2)n1C` reads over 25000 nM.
The result for `C[C@H](NC(=O)c1cccc2c1CC(=O)N2)c1cc2cnccc2o1` reads over 25000 nM; that for `Cc1c(C(=O)Nc2cc(C(=O)N3CCOCC3)ccn2)cc(C2CC2)n1C`, over 25000 nM.
Take `Cc1c(C(=O)Nc2cc(C(=O)N3CCCNC(=O)C3)ccn2)cc(C2CC2)n1C`: the IC50 is over 25000 nM.
Under `O=C(Nc1ccc2c(c1)CN[C@H]2CO)c1cc(F)cc2[nH]ncc12` stands 125 nM; under `C[C@H](NC(=O)c1cccc2c1CC(=O)N2)c1ccncc1F`, over 25000 nM.
The result for `Cc1c(C(=O)Nc2cc(Br)c3c(c2)COC3)cc(C2CC2)n1C` reads over 25000 nM; that for `Cn1nc(CNc2ccc3c(c2)CNC3)cc1C1CC1`, 10900 nM; that for `O=C1Cc2c(cccc2C(=O)NC[C@H]2CCCN(c3nccs3)C2)N1`, over 25000 nM.
